The record followed here is ChEMBL document CHEMBL1201862, “PubChem BioAssay data set” (2004).

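Five concentrations, 48 hours, 96-well plates. GI50 = concentration required for 50% inhibition of growth.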 Activity calls are given as the source filed them. No stated cut-off is given here; in the data, active = GI50 up to about 1.1 µM and inactive = higher.

Some test systems named below: ACHN; CAKI-1; COLO 205; EKVX; HCT-15; HL-60; MDA-MB-435; MDA-N; MOLT-4; NCI-H226; NCI-H460; OVCAR-8; RXF 393; SK-MEL-5; SK-OV-3; SN12C; UACC-257; UO-31; OVCAR-5; HOP-92.
Holding throughout (test): DTP human tumour cell line panel, 48 h

Broadly, the GI50 is the concentration giving 50% growth inhibition. As for `O=C(O)Cc1cccc2c1OC(c1ccccc1)C(Cl)(C(=O)c1ccccc1)C2=O` (centres undefined), the GI50 in the experiment on ACHN was 14 µM (inactive); with CAKI-1 it was 17.8 µM (inactive); with COLO 205, > 10 µM (inactive); in the experiment with EKVX, 21.5 µM (inactive); in the experiment on HCT-15, 14.4 µM; in the experiment on HL-60, 11.9 µM (inactive). Further, the GI50 in the experiment with MDA-MB-435 is 15.8 µM (inactive); with MDA-N, 14.4 µM (inactive); in the experiment with MOLT-4, 22.4 µM (inactive); in the experiment on NCI-H226, 30.1 µM (inactive); in the experiment with NCI-H460, 19.9 µM (inactive); with OVCAR-8, 22.2 µM (inactive). Besides, the GI50 is > 10 µM (inactive) in the experiment with RXF 393; 15.3 µM (inactive) with SK-MEL-5; > 100 µM (inactive) in the experiment with SK-OV-3; 10.5 µM (inactive) in the experiment on SN12C; 15.3 µM (inactive) with UACC-257; 17.4 µM (inactive) in the experiment on UO-31.

Regarding `N#Cc1nn(C2OC(COC(=O)c3ccccc3)C(OC(=O)c3ccccc3)C2OC(=O)c2ccccc2)c2nc[nH]c(=O)c12` (centres undefined), the GI50 in the experiment on ACHN was 44.3 µM (inactive); with CAKI-1, 38.5 µM (inactive); with COLO 205, 27.4 µM (inactive); in the experiment on EKVX, 55.7 µM (inactive); in the experiment with HCT-15, 40.1 µM; with HL-60, 34 µM (inactive). The GI50 was 46.2 µM (inactive) in the experiment on MDA-MB-435; 49.2 µM (inactive) with MDA-N; 36.6 µM (inactive) in the experiment on MOLT-4; > 100 µM (inactive) with NCI-H226; 30.4 µM (inactive) in the experiment on NCI-H460; > 100 µM (inactive) in the experiment with OVCAR-5. In addition, the GI50 in the experiment on OVCAR-8 is 27.8 µM (inactive); in the experiment on RXF 393, 36.4 µM (inactive); with SK-MEL-5 it was 25.6 µM (inactive); in the experiment with SK-OV-3 it was 5.57 µM (inactive); with SN12C, 77.4 µM (inactive); in the experiment on UACC-257, > 100 µM (inactive). Besides, the GI50 with UO-31 was 56.2 µM (inactive).

Consider `C=C1C(=O)O[C@H]2C[C@@]3(COC(C)=O)C=COC=C(COC(=O)C(C)C)C3CC12` (some centres undefined), for which the GI50 is > 100 µM (inactive) in the experiment with ACHN; 65.2 µM (inactive) with CAKI-1; 61.1 µM (inactive) with COLO 205; > 100 µM (inactive) in the experiment on EKVX; > 100 µM with HCT-15; 23.8 µM (inactive) in the experiment on HL-60. For the same compound, the GI50 was 73.5 µM (inactive) with MDA-MB-435; 45.7 µM (inactive) in the experiment on MDA-N; 28.4 µM (inactive) with MOLT-4; > 100 µM (inactive) with NCI-H226; > 100 µM (inactive) in the experiment with NCI-H460; > 100 µM (inactive) with OVCAR-5. Moreover, the GI50 was 53.3 µM (inactive) in the experiment on OVCAR-8; 67.6 µM (inactive) with RXF 393; > 100 µM (inactive) in the experiment on SK-MEL-5; 37.7 µM (inactive) in the experiment on SN12C; > 100 µM (inactive) in the experiment on UACC-257; > 100 µM (inactive) in the experiment on UO-31.

Take `COc1ccc(NC(=S)N/N=C/c2cccc(C)n2)cc1`: the GI50 with ACHN is 2.83 µM (inactive); in the experiment on CAKI-1, 4.25 µM (inactive); in the experiment with COLO 205 it was 2.63 µM (inactive); in the experiment with EKVX, 5.11 µM (inactive); in the experiment with HCT-15, 2.31 µM; in the experiment on HL-60, 1.84 µM (inactive). Further, the GI50 in the experiment on HOP-92 was 5.65 µM (inactive); in the experiment with MDA-MB-435, 1.04 µM (active); with MDA-N it was 1.41 µM (inactive); in the experiment with MOLT-4, 3.07 µM (inactive); in the experiment with NCI-H226 it was 10.2 µM (inactive); with NCI-H460, 3.46 µM (inactive). In addition, the GI50 with OVCAR-5 is 31.5 µM (inactive); in the experiment with OVCAR-8, 3.74 µM (inactive); with SK-MEL-5, 3.95 µM (inactive); in the experiment with SK-OV-3, 4.61 µM (inactive); with SN12C, 5.79 µM (inactive); in the experiment on UACC-257, 2.53 µM (inactive). In addition, in the experiment on UO-31, the GI50 is 3.33 µM (inactive).
